Measurements: patent US20170097335A1, “Methods for Diagnosing Impaired Absorption of Amino Acids, Monosaccharides and Fatty Acids” (The Texas A&M University System, priority 2015, published 2017)

How the values were obtained:
[1] = Conversion of D- into L-phenylalanine; assay type: in vivo; details: observed in the pig
Excerpt: This allows for an estimation of the potential disturbance of the digestion and splanchnic extraction measurements that also involve L-phenylalanine stable isotopes.

[2] = Ratio of enterally to intravenously provided L-allo-isoleucine isotopologues in blood samples, pig model; assay type: in vivo
Procedure: (§1) Both human and animal models were used for measuring protein absorption in the intestinal walls. The subjects were prepared with indwelling catheters to enable blood sampling. Stable isotopes of amino acids are obtained and made into sterile and pyrogen-free solutions. These isotopes may comprise L-allo-[^2H10, ^15N]-isoleucine, L-allo-[^13C6]-isoleucine, D-1-[^13C]phenylalanine, D-C^3C6]phenylalanine, D-[^2H5]-phenylalanine, D-[2-^2H]phenylalanine. A blood sample is taken or drawn from each subject for a measurement of the natural background. A bolus or continuous infusion of the stable isotope of the amino acid may be used. The labeled amino acid is administered orally to each subject and another isotope of the amino acid nutrient is administered intravenously to the same subject at the same time or within 8 hours. Blood samples are taken or drawn from each subject in the time window of about one to several hours. The labeled amino acids enrichments in each sample are analyzed by Mass Spectrometry. Results from the Mass Spectrometry are applied to a non-compartmental model for analysis and ratio determination. The metabolic phenotype is produced based on the measured amino acids production, consumption and metabolism.

[3] = Protein absorption in the intestinal walls: ratio of orally to intravenously provided isotopologue in blood, healthy volunteers; assay type: in vivo, human; details: FIG. 1
Procedure: as §1

In the case of N[C@H](Cc1ccccc1)C(=O)O [D-phenylalanine], the “conversion rate of D- into L-phenylalanine” value [1] is reported as 10%.

With [13CH3][13CH2][13C@@H]([13CH3])[13C@H](N)[13C](=O)O [L-allo-[^13C6]-isoleucine] the “ratio of enterally administered over intravenously administered isotopologue” value ([2]; continuously fed pig (4 hours), over intravenously administered L-allo-[^2H10, ^15M-isoleucine, FIG. 4) was “about 0.8” and the “ratio of enterally administered over intravenously administered isotopologue” value ([2]; pigs with bolus feeding for 4 hours, over intravenously administered allo-Isoleucine[^2H10, ^15N](M9+M11), FIG. 5) was “about 0.8”.

With CC[C@@H](C)[C@H](N)C(=O)O [L-allo-isoleucine] the “absorption ratio of orally provided isotopologue over intravenously provided isotopologue” value [3] was “about 0.8”.
